Numbered stars: 1 amine (or outer) side, 2 acyl side, 3 side chain; on linkers, the order of the positions; unused ones are H or OH. Bridge positions count the residues as written; N and C are the ends. Square brackets hold non-standard residues; d marks the D form. Peptide text beside a SMILES is read from it. * marks the point of attachment. hPhe(3-Cl-4-CF3) = N[C@@H](CCc1ccc(C(F)(F)F)c(Cl)c1)C(=O)O; hPhe(4-CF3) = N[C@@H](CCc1ccc(C(F)(F)F)cc1)C(=O)O; X103 = O=C([C@H](CCc1c(F)cccc1Cl)N[*:1])[*:2]; NMePhe(4-Cl) = CN[C@@H](Cc1ccc(Cl)cc1)C(=O)O; NMePhe(4-Me) = CN[C@@H](Cc1ccc(C)cc1)C(=O)O; NMeGly(cPent) = CN[C@H](C(=O)O)C1CCCC1; NMeGly(cBu) = CN[C@H](C(=O)O)C1CCC1; NMeCha = CN[C@@H](CC1CCCCC1)C(=O)O; NMehLeu = CN[C@@H](CCC(C)C)C(=O)O; NMeChg = CN[C@H](C(=O)O)C1CCCCC1; NMeF = CN[C@@H](Cc1ccccc1)C(=O)O; NMeD = CN[C@@H](CC(=O)O)C(=O)O; NMeL = CN[C@@H](CC(C)C)C(=O)O; NMeNva = CCC[C@H](NC)C(=O)O; NMeV = CN[C@H](C(=O)O)C(C)C; d(β3hA) = C[C@@H](N)CC(=O)O; Morpholide = C1CN(*)CCO1; NMeA = CN[C@@H](C)C(=O)O; Piperidide = C1CCN(*)CC1; Ac5c = NC1(C(=O)O)CCCC1; Aze = O=C(O)[C@@H]1CCN1; Sar = CNCC(=O)O
The molecules below were run against protein-protein interaction between Kras and SOS1 (biotin-tagged human Kras loaded with GDP, His-tagged human SOS1) (Homo sapiens (Human), UniProt P01116, G12D) (assay: Protein-protein interaction inhibition between Kras and SOS1 (KrasG12D-SOS PPI) using AlphaScreen). Details: AlphaScreen; biotin-tagged human Kras loaded with GDP, His-tagged human SOS1; read-out: KRAS G12D-SOS PPI IC50.
Type: biochemical

Structure (SMILES) | IC50
CC[C@H](C)[C@@H]1NC(=O)[C@H](C)N(C)C(=O)C[C@@H](C)NC(=O)[C@H](C2CCCC2)N(C)C(=O)C2(CCCC2)NC(=O)[C@@H]2CCCN2C(=O)[C@H](CCc2ccc(C(F)(F)F)c(Cl)c2)NC(=O)CN(C)C(=O)[C@H](Cc2ccc(C)cc2)N(C)C(=O)CN(C)C(=O)CN(C)C1=O [Compound 1485] (cyclo([Ac5c][NMeGly(cPent)][d(β3hA)][NMeA]I[Sar][Sar][NMePhe(4-Me)][Sar][hPhe(3-Cl-4-CF3)]P)) | 0.84 nM
CC[C@H](C)[C@@H]1NC(=O)[C@H](C2CCC2)N(C)C(=O)C[C@@H](C(=O)N2CCCCC2)N(C)C(=O)[C@H](C(C)C)N(C)C(=O)C2(CCCC2)NC(=O)[C@@H]2CCCN2C(=O)[C@H](CCc2ccc(C(F)(F)F)c(Cl)c2)NC(=O)CN(C)C(=O)[C@H](CC2CCCCC2)N(C)C(=O)[C@@H]2CCN2C(=O)[C@H](C)N(C)C1=O [Compound 1036] ([NMeGly(cBu)]I[NMeA][Aze][NMeCha][Sar][hPhe(3-Cl-4-CF3)]P[Ac5c][NMeV][NMeD]-Piperidide; lactam N-11) | 7.7 nM
CC[C@H](C)[C@@H]1NC(=O)[C@H](CCC(C)C)N(C)C(=O)C[C@@H](C(=O)N2CCOCC2)N(C)C(=O)[C@H](C2CCCC2)N(C)C(=O)C2(CCCC2)NC(=O)[C@@H]2CCCN2C(=O)[C@H](CCc2ccc(C(F)(F)F)c(Cl)c2)NC(=O)CN(C)C(=O)[C@H](C2CCCC2)N(C)C(=O)[C@@H]2CCN2C(=O)[C@H](C)NC1=O [Compound 1223] ([NMehLeu]IA[Aze][NMeGly(cPent)][Sar][hPhe(3-Cl-4-CF3)]P[Ac5c][NMeGly(cPent)][NMeD]-Morpholide; lactam N-11) | 1.2 nM
CCC[C@H]1C(=O)N2CC[C@H]2C(=O)N(C)[C@@H](CC2CCCCC2)C(=O)N(C)CC(=O)N[C@@H](CCc2ccc(C(F)(F)F)c(Cl)c2)C(=O)N2CCC[C@H]2C(=O)NC2(CCCC2)C(=O)N(C)[C@@H](C(C)C)C(=O)N[C@H](C)CC(=O)N(C)[C@@H](CC(C)C)C(=O)N[C@@H]([C@@H](C)CC)C(=O)N1C [Compound 1560] (cyclo([Ac5c][NMeV][d(β3hA)][NMeL]I[NMeNva][Aze][NMeCha][Sar][hPhe(3-Cl-4-CF3)]P)) | 160 nM
CC[C@H](C)[C@@H]1NC(=O)[C@H](CC2CCCCC2)N(C)C(=O)C[C@@H](C(=O)N2CCCCC2)N(C)C(=O)[C@H](C(C)C)N(C)C(=O)C2(CCCC2)NC(=O)[C@@H]2CCCN2C(=O)[C@H](CCc2ccc(C(F)(F)F)c(Cl)c2)NC(=O)CN(C)C(=O)[C@H](CC2CCCCC2)N(C)C(=O)[C@@H]2CCN2C(=O)[C@H](C)N(C)C1=O [Compound 572] ([NMeCha]I[NMeA][Aze][NMeCha][Sar][hPhe(3-Cl-4-CF3)]P[Ac5c][NMeV][NMeD]-Piperidide; lactam N-11) | 39 nM
CC[C@H](C)[C@@H]1NC(=O)[C@H](CC(C)C)N(C)C(=O)C[C@@H](C)NC(=O)[C@H](CC(C)C)N(C)C(=O)C2(CCCC2)NC(=O)[C@H](CC(C)C)N(C)C(=O)[C@H](CCc2ccc(C(F)(F)F)cc2)NC(=O)CN(C)C(=O)[C@H](Cc2ccc(Cl)cc2)N(C)C(=O)CN(C)C(=O)CN(C)C1=O [Compound 843] (cyclo([Ac5c][NMeL][d(β3hA)][NMeL]I[Sar][Sar][NMePhe(4-Cl)][Sar][hPhe(4-CF3)][NMeL])) | 49 nM
CC[C@H](C)[C@@H]1NC(=O)[C@H](C)N(C)C(=O)C[C@@H](C)NC(=O)[C@H](CC(C)C)N(C)C(=O)[C@H](Cc2ccccc2)N(C)C(=O)[C@H](CC(C)C)NC(=O)[C@H](CCc2c(F)cccc2Cl)NC(=O)CN(C)C(=O)[C@H](Cc2ccc(Cl)cc2)N(C)C(=O)CN(C)C(=O)CN(C)C1=O [Compound 2092] (cyclo(I[Sar][Sar][NMePhe(4-Cl)][Sar][X103]L[NMeF][NMeL][d(β3hA)][NMeA])) | 350 nM
CC[C@H](C)[C@@H]1NC(=O)[C@H](CC(C)C)N(C)C(=O)C[C@@H](C(=O)N2CCCCC2)N(C)C(=O)[C@H](C2CCC2)N(C)C(=O)C2(CCCC2)NC(=O)[C@@H]2CCCN2C(=O)[C@H](CCc2ccc(C(F)(F)F)c(Cl)c2)NC(=O)CN(C)C(=O)[C@H](CC2CCCCC2)N(C)C(=O)[C@@H]2CCN2C(=O)[C@H](C)N(C)C1=O [Compound 672] ([NMeL]I[NMeA][Aze][NMeCha][Sar][hPhe(3-Cl-4-CF3)]P[Ac5c][NMeGly(cBu)][NMeD]-Piperidide; lactam N-11) | 2.5 nM
CC[C@H](C)[C@@H]1NC(=O)[C@H](CC(C)C)N(C)C(=O)C[C@@H](C(=O)N2CCCCC2)N(C)C(=O)[C@H](C2CCCCC2)N(C)C(=O)C2(CCCC2)NC(=O)[C@H](C)N(C)C(=O)[C@H](CCc2ccc(C(F)(F)F)c(Cl)c2)NC(=O)CN(C)C(=O)[C@H](CC2CCCCC2)N(C)C(=O)CN(C)C(=O)CN(C)C1=O [Compound 294] ([NMeL]I[Sar][Sar][NMeCha][Sar][hPhe(3-Cl-4-CF3)][NMeA][Ac5c][NMeChg][NMeD]-Piperidide; lactam N-11) | 1.4 nM

Source: US20240148821A1, “PHARMACEUTICAL USE OF CYCLIC PEPTIDE COMPOUND” (CHUGAI SEIYAKU KABUSHIKI KAISHA, priority 2021, published 2024)
